Test results reported in ChEMBL document CHEMBL1149492, “Discovery of potent and stable conformationally constrained analogues of the MCH R1 antagonist SB-568849” (Bioorg Med Chem Lett, 2006).

Legend:
[1] = target: Melanin-concentrating hormone receptor 1 (Homo sapiens, UniProt Q99705); assay: Displacement of radiolabeled iodo-MCH from human MCHR1 expressed in HEK293 cells; assay type: cell-based
[2] = Stability in aqueous phosphate buffer at pH 7; assay type: physicochemical
[3] = tested on: Liver microsomes; assay: Intrinsic clearance in human liver microsome; assay type: ADME

Sequence of Melanin-concentrating hormone receptor 1 (Q99705 whole entry): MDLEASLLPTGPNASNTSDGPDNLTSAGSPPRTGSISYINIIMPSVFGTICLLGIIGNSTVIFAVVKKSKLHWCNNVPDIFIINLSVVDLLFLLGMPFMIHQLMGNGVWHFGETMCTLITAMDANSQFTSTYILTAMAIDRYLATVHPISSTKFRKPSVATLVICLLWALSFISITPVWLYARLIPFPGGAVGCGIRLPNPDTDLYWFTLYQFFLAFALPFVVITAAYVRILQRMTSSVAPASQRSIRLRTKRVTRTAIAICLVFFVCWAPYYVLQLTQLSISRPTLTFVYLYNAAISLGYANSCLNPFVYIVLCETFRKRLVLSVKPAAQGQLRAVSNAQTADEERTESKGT

`COc1cc(NC(=O)c2ccc(C3CCCCC3)cc2)ccc1OC12CCCN(CC1)C2` (centres undefined) gave a Ki [1] of 50.1 nM.
Molecule `CCN1CCN(c2ccc(NC(=O)c3ccc(C4CCCCC4)cc3)cc2OC)CC1` has a Ki [1] of 79.4 nM.
`COc1cc(-n2nnc3ccc(Oc4ccccc4)cc3c2=O)ccc1OCCN1CCCC1` gave a Ki [1] of 39.8 nM.
For `COc1cc(-n2cnc3sc(-c4ccccc4)cc3c2=O)ccc1OCCN1CCCC1`, the Ki [1] was 794 nM.
With `COc1cc(-n2cnc3cc(-c4ccccc4)sc3c2=O)ccc1OCCN1CCCC1` the Ki [1] was 20 nM and the Stability [2] was “Stable”.
For `O=C(Nc1ccc(OCCN2CCCC2)cc1)c1ccc2oc3ccccc3c2c1`, the Ki [1] was 2510 nM.
`CC(C)N(CCOc1ccc(N(C)C(=O)c2ccc3c(c2)CCc2ccccc2-3)cc1)C(C)C` gave a Ki [1] of 316 nM.
Work on `O=C(Nc1ccc(OCCN2CCCC2)cc1)c1ccc2c(c1)CCc1ccccc1-2` yielded a Ki [1] of 1000 nM.
`COc1cc(N2Cc3ccc(-c4ccccc4)cc3C2=O)ccc1OCCN(C(C)C)C(C)C` gave a Ki [1] of 398 nM.
`COc1cc(-n2cnc3cc(Oc4ccccc4)ccc3c2=O)ccc1OCCN1CCCC1` gave a Ki [1] of 50.1 nM.
With `COc1cc(N2C(=O)c3ccc(Oc4ccccc4)cc3C2=O)ccc1OCCN1CCCC1` the Activity [2] was “Not Active”.
`CC(C)N(CCOc1ccc(NC(=O)c2ccc3c(c2)C(=O)c2ccccc2-3)cc1)C(C)C` gave a Ki [1] of 200 nM.
Molecule `COc1cc(-n2nnc3cc(Oc4ccccc4)ccc3c2=O)ccc1OCCN1CCCC1` has a Ki [1] of 79.4 nM.
With `COc1cc(N2C(=O)c3ccc(Sc4ccccc4)cc3C2=O)ccc1OCCN1CCCC1` the Ki [1] was 31.6 nM and the Activity [2] was “Not Active”.
With `COc1cc(-n2cnc3ccc(Oc4ccccc4)cc3c2=O)ccc1OCCN1CCCC1` the Ki [1] was 316 nM.
Work on `COc1cc(NC(=O)c2ccc(C3CCCCC3)cc2)ccc1OC1CCN(C)C1` (centres undefined) yielded a Ki [1] of 63.1 nM.
`CC(C)N(CCOc1ccc(N(C)C(=O)c2ccc3c(c2)Cc2ccccc2-3)cc1)C(C)C` gave a Ki [1] of 398 nM.
In the case of `COc1cc(NC(=O)c2ccc(C3CCCCC3)cc2)ccc1OC[C@@H]1CCCN1C`, the Ki [1] is reported as 39.8 nM.
With `COc1cc(NC(=O)c2ccc(C3CCCCC3)cc2)ccc1O[C@H]1CCCC[C@@H]1N(C)C` the Ki [1] was 2510 nM.
In the case of `COc1cc(-n2nnc3cc(-c4ccccc4)ccc3c2=O)ccc1OCCN1CCCC1`, the CL [3] is reported as less than 1.5 mL/min/g, the Ki [1] is reported as 25.1 nM and the Stability [2] is reported as “Stable”.
Molecule `COc1cc(NC(=O)c2ccc(C3CCCCC3)cc2)ccc1OC[C@H]1CCCN1C` has a Ki [1] of 79.4 nM.
In the case of `COc1cc(N2C(=O)c3ccc(Nc4ccccc4)cc3C2=O)ccc1OCCN1CCCC1`, the Ki [1] is reported as 15.8 nM and the Activity [2] is reported as “Not Active”.
Molecule `COc1cc(-n2cnc3ccc(-c4ccc(Cl)cc4)cc3c2=O)ccc1OCCN1CCCC1` has a Ki [1] of 1000 nM.
In the case of `COc1cc(-n2cnc3cc(-c4ccccc4)ccc3c2=O)ccc1OCCN1CCCC1`, the CL [3] is reported as less than 1.5 mL/min/g, the Ki [1] is reported as 20 nM and the Stability [2] is reported as “Stable”.
`O=C(Nc1ccc(OCCN2CCCC2)cc1)c1ccc2c(c1)Cc1ccccc1-2` gave a Ki [1] of 501 nM.
In the case of `COc1cc(N2C(=O)c3ccc(-c4ccccc4)cc3C2=O)ccc1OCCN(C(C)C)C(C)C`, the Ki [1] is reported as 126 nM.
For `COc1cc(N(C)C(=O)c2ccc3oc4ccccc4c3c2)ccc1OCCN(C(C)C)C(C)C`, the Ki [1] was 2000 nM.
